Tests used:
redroot pigweed [1] = test: Test Example 4: herbicidal effect by soil treatment (Table 19, symbol N); assay type: in vivo, redroot pigweed (Amaranthus retroflexus); settings: amount of applied herbicide 320 g/ha
Method in brief: (§1)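 In this soil treatment, the formulated compound reached the seeds only through the soil: seeds were buried about 1.5 cm deep in sterilized diluvial soil, then the diluted emulsion was sprayed over the surface. After three weeks at 25° C. to 30° C. in a greenhouse, effects were graded on criteria from an earlier test.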

blackgrass = test: Test Example 5: herbicidal effect by foliage application, plastic box (Table 20, symbol J); assay type: in vivo, blackgrass (Alopecurus myosuroides); settings: foliage application; for J: blackgrass, herbicidal effect (criteria 0-5): AAH 320 g/ha; for herbicidal effect grade, J: blackgrass: three weeks after application
Method in brief: (§2)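 Plants were sown into sterilized diluvial soil under about 1.5 cm cover and kept in a greenhouse at 25° C. to 30° C. Fourteen days on, foliage received an even spray of the diluted emulsion. Herbicidal or crop effect was judged three weeks afterwards.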

chickweed [2] = test: Test Example 5: herbicidal effect by foliage application, plastic box (Table 20, symbol P); assay type: in vivo, common chickweed (Stellaria media); settings: foliage application; for P: chickweed, herbicidal effect (criteria 0-5): AAH 320 g/ha; for herbicidal effect grade, P: chickweed: three weeks after application
Method in brief: as §2

Italian ryegrass = test: Test Example 5: herbicidal effect by foliage application, plastic box (Table 20, symbol K); assay type: in vivo, Italian ryegrass (Lolium multiflorum); settings: foliage application; for K: Italian ryegrass, herbicidal effect (criteria 0-5): AAH 320 g/ha; for herbicidal effect grade, K: Italian ryegrass: three weeks after application
Method in brief: as §2

oval-leafed pondweed = test: Test Example 1: herbicidal activity, application before weed generation under submerged conditions (Table 16, symbol C); assay type: in vivo, oval-leafed pondweed (Monochoria vaginalis); settings: 320 g/ha applied herbicide
Method in brief: (§3)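 Emulsion formulation, water-diluted to set dose, was put onto the flooded surface (4 cm depth, alluvial soil) the same day weeds were sown and 2.5-leaf rice transplanted. After 3 weeks at 25-30 °C under glass, each species was rated 0 (≤5% kill) to 5 (≥90% kill).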

velvetleaf = test: Test Example 4: herbicidal effect by soil treatment (Table 19, symbol M); assay type: in vivo, velvetleaf (Abutilon theophrasti); settings: amount of applied herbicide 320 g/ha
Method in brief: as §1

barnyard grass [3] = test: Test Example 3: herbicidal effect by foliage application, Wagner pot (Table 18, symbol H); assay type: in vivo, barnyard grass (Echinochloa crus-galli); settings: for herbicidal effect on H: barnyard grass: amount of applied herbicide 320 g/ha; for herbicidal effect on H (barnyard grass), rating 0-5: 320 g/ha
Method in brief: (§4)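 Plants were sown in alluvial soil held under 0.1–0.5 cm standing water and grown 14 days in a greenhouse at 25–30 °C. An emulsifiable formulation, water-diluted to the set dose, was then sprayed onto the foliage, and effects were scored three weeks later using previously defined criteria.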

rice flat sedge = test: Test Example 3: herbicidal effect by foliage application, Wagner pot (Table 18, symbol E); assay type: in vivo, rice flat sedge (Cyperus iria); settings: for herbicidal effect on E: rice flat sedge: amount of applied herbicide 320 g/ha; for herbicidal effect on E (rice flat sedge), rating 0-5: 320 g/ha
Method in brief: as §4

late watergrass = test: Test Example 1: herbicidal activity, application before weed generation under submerged conditions (Table 16, symbol A); assay type: in vivo, late watergrass (Echinochloa oryzicola); settings: 320 g/ha applied herbicide
Method in brief: as §3

redroot pigweed [4] = test: Test Example 5: herbicidal effect by foliage application, plastic box (Table 20, symbol N); assay type: in vivo, redroot pigweed (Amaranthus retroflexus); settings: foliage application; for N: redroot pigweed, herbicidal effect (criteria 0-5): AAH 320 g/ha; for herbicidal effect grade, N: redroot pigweed: three weeks after application
Method in brief: as §2

green foxtail [5] = test: Test Example 4: herbicidal effect by soil treatment (Table 19, symbol G); assay type: in vivo, green foxtail (Setaria viridis); settings: amount of applied herbicide 320 g/ha
Method in brief: as §1

chickweed [6] = test: Test Example 4: herbicidal effect by soil treatment (Table 19, symbol P); assay type: in vivo, common chickweed (Stellaria media); settings: amount of applied herbicide 320 g/ha
Method in brief: as §1

Japanese bulrush = test: Test Example 2: herbicidal activity, application during weed generation under submerged conditions (Table 17, symbol B); assay type: in vivo, Japanese bulrush (Schoenoplectus juncoides); settings: AAH 320 g/ha; application during weed generation, submerged conditions
Method in brief: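 Effect on each weed is rated three weeks post-treatment, using the same scoring criteria as the preceding test. Plants grow from mixed-sown seed in flooded alluvial soil (4 cm water) at 25° C. to 30° C., and are treated at one to two leaves with diluted emulsion dropped onto the water.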

southern crabgrass = test: Test Example 5: herbicidal effect by foliage application, plastic box (Table 20, symbol F); assay type: in vivo, southern crabgrass (Digitaria ciliaris); settings: foliage application; for F: southern crabgrass, herbicidal effect (criteria 0-5): AAH 320 g/ha; for herbicidal effect grade, F: southern crabgrass: three weeks after application
Method in brief: as §2

green foxtail [7] = test: Test Example 5: herbicidal effect by foliage application, plastic box (Table 20, symbol G); assay type: in vivo, green foxtail (Setaria viridis); settings: foliage application; for G: green foxtail, herbicidal effect (criteria 0-5): AAH 320 g/ha; for herbicidal effect grade, G: green foxtail: three weeks after application
Method in brief: as §2

barnyard grass [8] = test: Test Example 4: herbicidal effect by soil treatment (Table 19, symbol H); assay type: in vivo, barnyard grass (Echinochloa crus-galli); settings: amount of applied herbicide 320 g/ha
Method in brief: as §1

[9] = 320 g/ha, evaluated three weeks after application
[10] = evaluated three weeks after application

Row | SMILES | Herbicidal effect on C: oval-leafed pondweed (grade 0-5) (oval-leafed pondweed) | herbicidal effect on H: barnyard grass (barnyard grass [3]) | herbicidal effect on E: rice flat sedge (rice flat sedge) | Herbicidal effect on A: late watergrass (grade 0-5) (late watergrass) | herbicidal effect rating, B: Japanese bulrush (Japanese bulrush) | herbicidal effect on N: redroot pigweed (redroot pigweed [1]) | J: blackgrass, herbicidal effect (criteria 0-5) (blackgrass; [10]) | P: chickweed, herbicidal effect (criteria 0-5) (chickweed [2]; [10]) | K: Italian ryegrass, herbicidal effect (criteria 0-5) (Italian ryegrass; [10]) | herbicidal effect on M: velvetleaf (velvetleaf) | N: redroot pigweed, herbicidal effect (criteria 0-5) (redroot pigweed [4]; [10]) | herbicidal effect on G: green foxtail (green foxtail [5]) | herbicidal effect on P: chickweed (chickweed [6]) | F: southern crabgrass, herbicidal effect (criteria 0-5) (southern crabgrass; [10]) | G: green foxtail, herbicidal effect (criteria 0-5) (green foxtail [7]; [10]) | herbicidal effect on H: barnyard grass (barnyard grass [8]) | herbicidal effect rating, N: redroot pigweed (redroot pigweed [1]) | herbicidal effect grade, J: blackgrass (blackgrass; 320 g/ha) | herbicidal effect grade, P: chickweed (chickweed [2]; 320 g/ha) | herbicidal effect grade, K: Italian ryegrass (Italian ryegrass; 320 g/ha) | other results
1 | CCCC(=O)Oc1c(C)nn(C)c(=O)c1-c1c(-c2cccc(F)c2)sc2ccc(F)cc12 [2-202] | 0 (Herbicidal rate of 5% or less (almost no effect)) | 5 (Herbicidal rate of 90% or more (almost completely withered)) | 5 (Herbicidal rate of 90% or more (almost completely withered)) | 3 (Herbicidal rate of 40% or more and less than 70%) | 3 (Herbicidal rate of 40% or more and less than 70%) | – | – | – | – | – | – | – | – | – | – | – | – | – | – | – | N: redroot pigweed, herbicidal effect rating (redroot pigweed [1]): 5 (Herbicidal rate of 90% or more (almost completely withered)); herbicidal effect on J: blackgrass (criteria 0-5) (blackgrass; [9]): 1 (Herbicidal rate of 5% or more and less than 20%); herbicidal effect on P: chickweed (criteria 0-5) (chickweed [2]; [9]): 5 (Herbicidal rate of 90% or more (almost completely withered)); herbicidal effect on K: Italian ryegrass (criteria 0-5) (Italian ryegrass; [9]): 3 (Herbicidal rate of 40% or more and less than 70%); M: velvetleaf, herbicidal effect rating (velvetleaf): 0 (Herbicidal rate of 5% or less (almost no effect)); herbicidal effect on N: redroot pigweed (criteria 0-5) (redroot pigweed [4]; [9]): 5 (Herbicidal rate of 90% or more (almost completely withered)); G: green foxtail, herbicidal effect rating (green foxtail [5]): 3 (Herbicidal rate of 40% or more and less than 70%); P: chickweed, herbicidal effect rating (chickweed [6]): 4 (Herbicidal rate of 70% or more and less than 90%); herbicidal effect on F: southern crabgrass (criteria 0-5) (southern crabgrass; [9]): 3 (Herbicidal rate of 40% or more and less than 70%); herbicidal effect on G: green foxtail (criteria 0-5) (green foxtail [7]; [9]): 4 (Herbicidal rate of 70% or more and less than 90%); H: barnyard grass, herbicidal effect rating (barnyard grass [8]): 4 (Herbicidal rate of 70% or more and less than 90%)
2 | COCCOC(=O)Oc1c(C)nn(C)c(=O)c1-c1c(-c2ccc(OC(F)F)cc2)sc2ccc(F)cc12 [2-295] | 2 (Herbicidal rate of 20% or more and less than 40%) | 5 (Herbicidal rate of 90% or more (almost completely withered)) | 5 (Herbicidal rate of 90% or more (almost completely withered)) | 4 (Herbicidal rate of 70% or more and less than 90%) | 3 (Herbicidal rate of 40% or more and less than 70%) | 5 (Herbicidal rate of 90% or more (almost completely withered)) | 4 (Herbicidal rate of 70% or more and less than 90%) | 5 (Herbicidal rate of 90% or more (almost completely withered)) | 5 (Herbicidal rate of 90% or more (almost completely withered)) | 4 (Herbicidal rate of 70% or more and less than 90%) | 5 (Herbicidal rate of 90% or more (almost completely withered)) | 5 (Herbicidal rate of 90% or more (almost completely withered)) | 4 (Herbicidal rate of 70% or more and less than 90%) | 4 (Herbicidal rate of 70% or more and less than 90%) | 5 (Herbicidal rate of 90% or more (almost completely withered)) | 5 (Herbicidal rate of 90% or more (almost completely withered)) | – | – | – | – | –
3 | Cc1nn(C)c(=O)c(-c2c(-c3ccc(C#N)cc3)sc3ccccc23)c1O [Compound No. 1-045, 5-hydroxy-2,6-dimethyl-4-(2-(4-cyanophenyl)benzo[b]thiophen-3-yl)pyridazin-3(2H)-one] | 4 (Herbicidal rate of 70% or more and less than 90%) | – | – | 1 (Herbicidal rate of 5% or more and less than 20%) | 3 (Herbicidal rate of 40% or more and less than 70%) | – | – | – | – | – | – | – | – | – | – | – | 3 (Herbicidal rate of 40% or more and less than 70%) | 0 (Herbicidal rate of 5% or less (almost no effect)) | 5 (Herbicidal rate of 90% or more (almost completely withered)) | 5 (Herbicidal rate of 90% or more (almost completely withered)) | herbicidal effect rating, M: velvetleaf (velvetleaf): 5 (Herbicidal rate of 90% or more (almost completely withered)); herbicidal effect on H (barnyard grass), rating 0-5 (barnyard grass [3]): 5 (Herbicidal rate of 90% or more (almost completely withered)); herbicidal effect on E (rice flat sedge), rating 0-5 (rice flat sedge): 5 (Herbicidal rate of 90% or more (almost completely withered)); herbicidal effect grade, N: redroot pigweed (redroot pigweed [4]; 320 g/ha): 5 (Herbicidal rate of 90% or more (almost completely withered)); herbicidal effect rating, G: green foxtail (green foxtail [5]): 4 (Herbicidal rate of 70% or more and less than 90%); herbicidal effect rating, P: chickweed (chickweed [6]): 4 (Herbicidal rate of 70% or more and less than 90%); herbicidal effect grade, F: southern crabgrass (southern crabgrass; 320 g/ha): 3 (Herbicidal rate of 40% or more and less than 70%); herbicidal effect grade, G: green foxtail (green foxtail [7]; 320 g/ha): 3 (Herbicidal rate of 40% or more and less than 70%); herbicidal effect rating, H: barnyard grass (barnyard grass [8]): 5 (Herbicidal rate of 90% or more (almost completely withered))
4 | COc1ccc(-c2sc3ccccc3c2-c2c(O)c(C)nn(C)c2=O)cc1OC [1-072] | 0 (Herbicidal rate of 5% or less (almost no effect)) | – | – | 3 (Herbicidal rate of 40% or more and less than 70%) | 3 (Herbicidal rate of 40% or more and less than 70%) | – | – | – | – | – | – | – | – | – | – | – | 5 (Herbicidal rate of 90% or more (almost completely withered)) | 3 (Herbicidal rate of 40% or more and less than 70%) | 5 (Herbicidal rate of 90% or more (almost completely withered)) | 5 (Herbicidal rate of 90% or more (almost completely withered)) | herbicidal effect rating, M: velvetleaf (velvetleaf): 5 (Herbicidal rate of 90% or more (almost completely withered)); herbicidal effect on H (barnyard grass), rating 0-5 (barnyard grass [3]): 5 (Herbicidal rate of 90% or more (almost completely withered)); herbicidal effect on E (rice flat sedge), rating 0-5 (rice flat sedge): 5 (Herbicidal rate of 90% or more (almost completely withered)); herbicidal effect grade, N: redroot pigweed (redroot pigweed [4]; 320 g/ha): 5 (Herbicidal rate of 90% or more (almost completely withered)); herbicidal effect rating, G: green foxtail (green foxtail [5]): 5 (Herbicidal rate of 90% or more (almost completely withered)); herbicidal effect rating, P: chickweed (chickweed [6]): 4 (Herbicidal rate of 70% or more and less than 90%); herbicidal effect grade, F: southern crabgrass (southern crabgrass; 320 g/ha): 5 (Herbicidal rate of 90% or more (almost completely withered)); herbicidal effect grade, G: green foxtail (green foxtail [7]; 320 g/ha): 5 (Herbicidal rate of 90% or more (almost completely withered)); herbicidal effect rating, H: barnyard grass (barnyard grass [8]): 5 (Herbicidal rate of 90% or more (almost completely withered))
5 | CCCC(=O)Oc1c(C)nn(C)c(=O)c1-c1c(-c2ccc(F)c(F)c2)sc2ccc(F)cc12 [2-345] | 3 (Herbicidal rate of 40% or more and less than 70%) | 5 (Herbicidal rate of 90% or more (almost completely withered)) | 5 (Herbicidal rate of 90% or more (almost completely withered)) | 4 (Herbicidal rate of 70% or more and less than 90%) | 5 (Herbicidal rate of 90% or more (almost completely withered)) | 5 (Herbicidal rate of 90% or more (almost completely withered)) | 0 (Herbicidal rate of 5% or less (almost no effect)) | 5 (Herbicidal rate of 90% or more (almost completely withered)) | 3 (Herbicidal rate of 40% or more and less than 70%) | 3 (Herbicidal rate of 40% or more and less than 70%) | 5 (Herbicidal rate of 90% or more (almost completely withered)) | 5 (Herbicidal rate of 90% or more (almost completely withered)) | 3 (Herbicidal rate of 40% or more and less than 70%) | 4 (Herbicidal rate of 70% or more and less than 90%) | 5 (Herbicidal rate of 90% or more (almost completely withered)) | 4 (Herbicidal rate of 70% or more and less than 90%) | – | – | – | – | –
